Experimental data: US7727949B2, “Cleaning agent for thermostatic chambers” (Wako Pure Chemical Industries, Ltd., priority 2005, dated 2010)

Assays:
Assay type in all cases: cell-based
[1] = tested on: Bacillus subtilis (NBRC13719); experiment: Study of germicidal activity of agents in the presence of proteins; set-up: key: a case where growth of the microorganism on the surface of the medium was recognized is shown by +; a case where growth of the microorganism on the surface of the medium was not recognized is shown by −; settings: agent 50 μg/mL
Protocol: (§1) Didecyldimethylammonium adipate (DDAA), N-bis(3-aminopropyl)dodecylamine (TAA) and benzalkonium chloride were respectively prepared such that a concentration thereof is 1 w/w %.
(§2) GOT solution: GOT Substrate-Enzyme solution and GOT•L2α-KG solution which were components of L type Wako GOT•J2 kit (produced by Wako Pure Chemical Industries, Ltd.) were prepared with distilled water so as to become a 0.1 w/w % aqueous solution.
(§3) GPT solution: GOT Substrate-Enzyme solution and GOT•L2α-KG solution which were components of L type Wako GPT•J2 kit (produced by Wako Pure Chemical Industries, Ltd.) were prepared with distilled water so as to become a 0.1 w/w % aqueous solution.
(§4) Serum: Control Serum II Wako (produced by Wako Pure Chemical Industries, Ltd.) was prepared with distilled water so as to become a 0.1 w/w % aqueous solution.
(§5) i) The individual test microorganism, which was preliminarily cultured in bouillon medium in advance until 1×10^8 microorganisms/mL, were diluted with sterilized physiological saline for 100 times (to 1×10^6 microorganisms/mL) to obtain a solution of test microorganisms. ii) Into a 20 mL test tube made of glass which was preliminarily sterilized by dry-heat sterilization, the agent aqueous solution, the reagent solution and the solution of test microorganisms as prepared in the above described i) were added such that a final concentration of the agent become 50 μg/mL, a final concentration of the reagent become 100 μg/mL, and the number of test microorganisms become 1×10^5 microorganisms/mL, respectively, when a total volume thereof is prepared to be 10 mL. And then, the tube was sufficiently stirred. iii) After a lapse of predetermined times (5 min, 10 min, and 15 min), the solution as obtained in the above described ii) was smeared with a platinum loop on the surface of the nutrient agar plate medium preliminarily having been prepared, and the medium was cultured at 35° C.±2° C. for 24 hours. iv) After the cultivation, confirming the presence or not of the growth of the microorganisms on the surface of the medium was conducted. (3) Result
(§6) In Table 3, a case where growth of the microorganism on the surface of the medium was recognized is shown by +, and a case where growth of the microorganism on the surface of the medium was not recognized is shown by −, respectively.

[2] = tested on: Escherichia coli (NBRC3972); experiment: as above; set-up: key: a case where growth of the microorganism on the surface of the medium was recognized is shown by +; a case where growth of the microorganism on the surface of the medium was not recognized is shown by −; settings: agent 50 μg/mL
Protocol: as §1, §2, §3, §4, §5, §6

[3] = tested on: Pseudonas aeruginosa (NBRC12689); experiment: as above; set-up: key to growth of the microorganism P.a: a case where growth of the microorganism on the surface of the medium was recognized is shown by +; a case where growth of the microorganism on the surface of the medium was not recognized is shown by −; settings: agent 50 μg/mL
Protocol: as §1, §2, §3, §4, §5, §6

[4] = tested on: Staphylococcus aureus (NBRC12732); experiment: Study of antimicrobial activity in the presence of proteins (MIC)
Protocol: (§7) GOT (glutamic-oxaloacetic transaminase) solution: GOT Substrate-Enzyme solution and GOT-2α•KG solution which were components of L type Wako GOT•J2 kit (produced by Wako Pure Chemical Industries, Ltd.) were prepared with distilled water so as to become a 0.2 w/w % aqueous solution.
(§8) GPT (glutamic-pyruvic transaminase) solution: GOT Substrate-Enzyme solution and GOT•2α-KG solution which were components of L type Wako GPT•J2 kit (produced by Wako Pure Chemical Industries, Ltd.) were prepared with distilled water so as to become a 0.2 w/w % aqueous solution.
(§9) Serum: Control Serum II Wako (produced by Wako Pure Chemical Industries, Ltd.) was prepared with distilled water so as to become a 0.2 w/w % aqueous solution with distilled water.
(§10) In a sterilized petri dish having a diameter of 90 mm, an aqueous solution which was obtained by diluting each of agents with distilled water was added such that a concentration of the agent become each predetermined concentrations when the solution is prepared to a total volume of 20 mL, and the agent aqueous solution and a reagent solution such that a final concentration of each of components (GOT, GPT, and serum) in the reagent become 100 μg/mL when the solution is prepared to a total volume of 20 mL. And then, sterilized water was added into the petri dish such that a total volume of sterilized water and the agent aqueous solution become 2 mL. Further, 18 mL of nutrient agar medium, which was sterilized with high pressure steam and preserved at 50° C.±2° C., was added into the petri dish, and it was solidified to obtain an agar plate medium. Furthermore, as a reference, agar plate medium obtained by using pure water instead of the agent solution was also prepared.
(§11) The individual test microorganisms, which was preliminarily cultured in bouillon medium in advance until 1×10^8 microorganisms/mL, was diluted with sterilized physiological saline for 100 times (to 1×10^6 microorganisms/mL). Next, the prepared solution of the test microorganisms was smeared with a platinum loop on the surface of the agar plate medium prepared in (2), and the medium was cultured at 35° C.±2° C. for 24 hours.
(§12) After the cultivation, confirming the presence or not of the growth of the microorganism on the surface of the medium was conducted, a minimum concentration of the agent, where growth of the microorganisms cannot be recognized, was determine as the minimum inhibitory concentration (MIC, μg/mL) of the agent.

[5] = tested on: Pseudonas aeruginosa (NBRC12689); experiment: as above
Protocol: as §7, §8, §9, §10, §11, §12

[6] = tested on: Bacillus subtilis (NBRC13719); experiment: as above
Protocol: as §7, §8, §9, §10, §11, §12

[7] = tested on: Escherichia coli (NBRC3972); experiment: as above
Protocol: as §7, §8, §9, §10, §11, §12

Substance: Didecyldimethylammonium adipate [DDAA]
- growth of the microorganism B.s ([1]; GOT, 5 min): +
- growth of the microorganism B.s ([1]; GOT, 10 min): +
- growth of the microorganism B.s ([1]; GOT, 15 min): +
- growth of the microorganism B.s ([1]; GPT, 5 min): +
- growth of the microorganism B.s ([1]; GPT, 10 min): +
- growth of the microorganism B.s ([1]; GPT, 15 min): +
- growth of the microorganism B.s ([1]; Serum, 5 min): +
- growth of the microorganism B.s ([1]; Serum, 10 min): +
- growth of the microorganism B.s ([1]; Serum, 15 min): +
- growth of the microorganism E.c ([2]; GOT, 5 min): +
- growth of the microorganism E.c ([2]; GOT, 10 min): +
- growth of the microorganism E.c ([2]; GOT, 15 min): +
- growth of the microorganism E.c ([2]; GPT, 5 min): +
- growth of the microorganism E.c ([2]; GPT, 10 min): +
- growth of the microorganism E.c ([2]; GPT, 15 min): +
- growth of the microorganism E.c ([2]; Serum, 5 min): +
- growth of the microorganism E.c ([2]; Serum, 10 min): +
- growth of the microorganism E.c ([2]; Serum, 15 min): +
- growth of the microorganism P.a ([3]; GOT, 5 min): −
- growth of the microorganism P.a ([3]; GOT, 10 min): −
- growth of the microorganism P.a ([3]; GOT, 15 min): −
- growth of the microorganism P.a ([3]; GPT, 5 min): −
- growth of the microorganism P.a ([3]; GPT, 10 min): −
- growth of the microorganism P.a ([3]; GPT, 15 min): −
- growth of the microorganism P.a ([3]; Serum, 5 min): −
- growth of the microorganism P.a ([3]; Serum, 10 min): −
- growth of the microorganism P.a ([3]; Serum, 15 min): −
- Minimum Inhibitory Concentration S.a ([4]; GOT 100 μg/mL): <1 µg/mL
- Minimum Inhibitory Concentration S.a ([4]; GPT 100 μg/mL): <1 µg/mL
- Minimum Inhibitory Concentration S.a ([4]; Pure Water): <1 µg/mL
- Minimum Inhibitory Concentration S.a ([4]; Serum 100 μg/mL): <1 µg/mL
- Minimum Inhibitory Concentration P.a ([5]; GOT 100 μg/mL): 200 µg/mL
- Minimum Inhibitory Concentration P.a ([5]; GPT 100 μg/mL): 200 µg/mL
- Minimum Inhibitory Concentration P.a ([5]; Pure Water): 200 µg/mL
- Minimum Inhibitory Concentration P.a ([5]; Serum 100 μg/mL): 200 µg/mL
- Minimum Inhibitory Concentration B.s ([6]; GOT 100 μg/mL): <1 µg/mL
- Minimum Inhibitory Concentration B.s ([6]; GPT 100 μg/mL): <1 µg/mL
- Minimum Inhibitory Concentration B.s ([6]; Pure Water): <1 µg/mL
- Minimum Inhibitory Concentration B.s ([6]; Serum 100 μg/mL): <1 µg/mL
- Minimum Inhibitory Concentration E.c ([7]; GOT 100 μg/mL): 50 µg/mL
- Minimum Inhibitory Concentration E.c ([7]; GPT 100 μg/mL): 50 µg/mL
- Minimum Inhibitory Concentration E.c ([7]; Pure Water): 50 µg/mL
- Minimum Inhibitory Concentration E.c ([7]; Serum 100 μg/mL): 50 µg/mL

Substance: benzalkonium chloride [BC, reference compound]
- growth of the microorganism B.s ([1]; GOT, 5 min): +
- growth of the microorganism B.s ([1]; GOT, 10 min): +
- growth of the microorganism B.s ([1]; GOT, 15 min): +
- growth of the microorganism B.s ([1]; GPT, 5 min): +
- growth of the microorganism B.s ([1]; GPT, 10 min): +
- growth of the microorganism B.s ([1]; GPT, 15 min): +
- growth of the microorganism B.s ([1]; Serum, 5 min): +
- growth of the microorganism B.s ([1]; Serum, 10 min): +
- growth of the microorganism B.s ([1]; Serum, 15 min): +
- growth of the microorganism E.c ([2]; GOT, 5 min): +
- growth of the microorganism E.c ([2]; GOT, 10 min): +
- growth of the microorganism E.c ([2]; GOT, 15 min): +
- growth of the microorganism E.c ([2]; GPT, 5 min): +
- growth of the microorganism E.c ([2]; GPT, 10 min): +
- growth of the microorganism E.c ([2]; GPT, 15 min): +
- growth of the microorganism E.c ([2]; Serum, 5 min): +
- growth of the microorganism E.c ([2]; Serum, 10 min): +
- growth of the microorganism E.c ([2]; Serum, 15 min): +
- growth of the microorganism P.a ([3]; GOT, 5 min): +
- growth of the microorganism P.a ([3]; GOT, 10 min): +
- growth of the microorganism P.a ([3]; GOT, 15 min): +
- growth of the microorganism P.a ([3]; GPT, 5 min): +
- growth of the microorganism P.a ([3]; GPT, 10 min): +
- growth of the microorganism P.a ([3]; GPT, 15 min): +
- growth of the microorganism P.a ([3]; Serum, 5 min): +
- growth of the microorganism P.a ([3]; Serum, 10 min): +
- growth of the microorganism P.a ([3]; Serum, 15 min): +
- Minimum Inhibitory Concentration S.a ([4]; GOT 100 μg/mL): <1 µg/mL
- Minimum Inhibitory Concentration S.a ([4]; GPT 100 μg/mL): 50 µg/mL
- Minimum Inhibitory Concentration S.a ([4]; Pure Water): <1 µg/mL
- Minimum Inhibitory Concentration S.a ([4]; Serum 100 μg/mL): <1 µg/mL
- Minimum Inhibitory Concentration P.a ([5]; GOT 100 μg/mL): >200 µg/mL
- Minimum Inhibitory Concentration P.a ([5]; GPT 100 μg/mL): >200 µg/mL
- Minimum Inhibitory Concentration P.a ([5]; Pure Water): >200 µg/mL
- Minimum Inhibitory Concentration P.a ([5]; Serum 100 μg/mL): >200 µg/mL
- Minimum Inhibitory Concentration B.s ([6]; GOT 100 μg/mL): 10 µg/mL
- Minimum Inhibitory Concentration B.s ([6]; GPT 100 μg/mL): 10 µg/mL
- Minimum Inhibitory Concentration B.s ([6]; Pure Water): 10 µg/mL
- Minimum Inhibitory Concentration B.s ([6]; Serum 100 μg/mL): 10 µg/mL
- Minimum Inhibitory Concentration E.c ([7]; GOT 100 μg/mL): 200 µg/mL
- Minimum Inhibitory Concentration E.c ([7]; GPT 100 μg/mL): 200 µg/mL
- Minimum Inhibitory Concentration E.c ([7]; Pure Water): 100 µg/mL
- Minimum Inhibitory Concentration E.c ([7]; Serum 100 μg/mL): 200 µg/mL
